Test results taken from ChEMBL document CHEMBL2073918, “Effect of modulators on the ATPase activity and vanadate nucleotide trapping of human P-glycoprotein” (Biochem Pharmacol, 1998).

Key:
[1] = biological target: T1, ATP-dependent translocase ABCB1 (Homo sapiens, UniProt P08183); test: TP_TRANSPORTER: inhibition of ATPase activity (Verapamil) in membranes from CEM/VLB100 cells; format: functional, cell membranes, Membrane
[2] = biological target: T1, ATP-dependent translocase ABCB1; test: TP_TRANSPORTER: ATP hydrolysis in membranes from CEM/VLB100 cells; format: functional, cell membranes, Membrane

T1 sequence (P08183 whole entry): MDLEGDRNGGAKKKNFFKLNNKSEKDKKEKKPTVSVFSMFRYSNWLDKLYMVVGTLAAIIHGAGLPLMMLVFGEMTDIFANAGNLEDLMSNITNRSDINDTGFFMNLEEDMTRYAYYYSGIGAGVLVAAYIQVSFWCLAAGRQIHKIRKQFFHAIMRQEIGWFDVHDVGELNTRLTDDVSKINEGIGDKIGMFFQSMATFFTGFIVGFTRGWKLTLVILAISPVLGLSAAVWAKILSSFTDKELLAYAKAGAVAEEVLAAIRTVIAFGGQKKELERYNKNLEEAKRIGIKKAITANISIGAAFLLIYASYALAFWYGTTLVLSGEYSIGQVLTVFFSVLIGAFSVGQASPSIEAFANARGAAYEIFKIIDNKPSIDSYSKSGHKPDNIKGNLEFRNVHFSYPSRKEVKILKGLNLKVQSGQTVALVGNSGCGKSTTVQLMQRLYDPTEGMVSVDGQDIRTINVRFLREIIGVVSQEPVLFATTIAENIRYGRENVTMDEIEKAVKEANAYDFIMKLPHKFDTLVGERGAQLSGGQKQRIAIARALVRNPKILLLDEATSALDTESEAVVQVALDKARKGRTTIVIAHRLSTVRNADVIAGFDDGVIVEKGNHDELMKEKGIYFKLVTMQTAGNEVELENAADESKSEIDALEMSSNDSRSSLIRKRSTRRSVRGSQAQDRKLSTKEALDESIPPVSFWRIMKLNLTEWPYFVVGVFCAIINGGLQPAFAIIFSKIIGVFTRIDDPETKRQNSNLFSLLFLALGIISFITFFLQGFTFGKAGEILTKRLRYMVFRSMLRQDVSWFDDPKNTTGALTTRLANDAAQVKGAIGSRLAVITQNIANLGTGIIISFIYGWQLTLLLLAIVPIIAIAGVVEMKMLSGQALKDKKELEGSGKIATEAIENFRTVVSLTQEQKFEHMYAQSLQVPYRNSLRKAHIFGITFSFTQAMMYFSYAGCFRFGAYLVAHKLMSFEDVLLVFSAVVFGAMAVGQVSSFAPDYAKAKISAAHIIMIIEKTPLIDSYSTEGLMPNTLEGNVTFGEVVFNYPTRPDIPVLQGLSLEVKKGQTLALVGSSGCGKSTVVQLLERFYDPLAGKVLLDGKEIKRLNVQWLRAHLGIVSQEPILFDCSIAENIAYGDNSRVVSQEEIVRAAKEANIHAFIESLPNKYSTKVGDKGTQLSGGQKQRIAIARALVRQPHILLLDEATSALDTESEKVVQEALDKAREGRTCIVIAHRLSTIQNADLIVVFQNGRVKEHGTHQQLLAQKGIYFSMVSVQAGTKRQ

| SMILES | Ki [1] | Activity [2] |
| --- | --- | --- |
| COC(=O)[C@@H]1C2CC3c4[nH]c5ccccc5c4CCN3CC2CC[C@@H]1OC(=O)c1cc(OC)c(OC)c(OC)c1 (some centres not stated) [TRIMETHOXYBENZOYLYOHIMBINE] | 2100 nM |  |
| CCC12C=CCN3CC[C@@]4(c5ccc(OC)cc5N(C)[C@H]4[C@@](O)(C(=O)OC)[C@@H]1OC(C)=O)[C@@H]32 (some centres not stated) [VINDOLINE] |  | is not a substrate [-] |
